Source: PubChem BioAssay AID330 (DTP/NCI, 2004)
“And” between values parts separate entries of the source, which are not always exact repeats. Equal entries are not always repeated. Inconclusive results and toxic doses are left out.

Test system: P388 leukemia ip, CD2F1 mice, survival T/C
Test: NCI In Vivo Anticancer Drug Screen. Data for tumor model P388 Leukemia (intraperitoneal) in CD2F1 (CDF1) mice
Settings: endpoint: median survival time, higher = longer survival
Procedure, shortened: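 Mice carrying the transplanted tumor received test compound or vehicle. Survival was recorded in each group, and the value is the treated-group measurement divided by that of the vehicle-treated control group.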

[1] = dose: 50.0 mg/kg/injection, schedule: Q01DX009 (ip), vehicle: saline with Tween-80
[2] = dose: 100.0 mg/kg/injection, schedule: Q01DX009 (ip), vehicle: saline with Tween-80
[3] = dose: 200.0 mg/kg/injection, schedule: Q01DX009 (ip), vehicle: saline with Tween-80
[4] = dose: 50.0 mg/kg/injection, schedule: Q01DX005 (ip), vehicle: saline with Tween-80
[5] = dose: 100.0 mg/kg/injection, schedule: Q01DX005 (ip), vehicle: saline with Tween-80
[6] = dose: 50.0 mg/kg/injection, schedule: Q01DX009 (ip), vehicle: Klucel (hydroxypropylcellulose) (HPC)
[7] = dose: 100.0 mg/kg/injection, schedule: Q01DX009 (ip), vehicle: Klucel (hydroxypropylcellulose) (HPC)
[8] = dose: 200.0 mg/kg/injection, schedule: Q01DX009 (ip), vehicle: Klucel (hydroxypropylcellulose) (HPC)

CCN(CC)[P+](c1cc(OC)ccc1OC)(N(CC)CC)N(CC)CC
T/C (dose: 1.56 mg/kg/injection, schedule: Q01DX009 (ip), vehicle: Klucel (hydroxypropylcellulose) (HPC)): 121 % of control
T/C (dose: 3.13 mg/kg/injection, schedule: Q01DX009 (ip), vehicle: Klucel (hydroxypropylcellulose) (HPC)): 106 % of control
T/C (dose: 25.0 mg/kg/injection, schedule: Q01DX009 (ip), vehicle: Klucel (hydroxypropylcellulose) (HPC)): 91 % of control

COc1ccc(-c2c(C)c(C)nc(Cl)c2C#N)c(OCc2ccccc2)c1OC
T/C (dose: 0.05 mg/kg/injection, schedule: Q01DX009 (ip), vehicle: water): 100 % of control
T/C (dose: 0.1 mg/kg/injection, schedule: Q01DX009 (ip), vehicle: water): 104 % of control
T/C (dose: 0.2 mg/kg/injection, schedule: Q01DX009 (ip), vehicle: water): 104 % of control
T/C (dose: 0.4 mg/kg/injection, schedule: Q01DX009 (ip), vehicle: other): 96 % of control
T/C (dose: 0.4 mg/kg/injection, schedule: Q01DX009 (ip), vehicle: water): 99 % of control
T/C (dose: 0.8 mg/kg/injection, schedule: Q01DX009 (ip), vehicle: other): 97 % of control
T/C (dose: 1.6 mg/kg/injection, schedule: Q01DX009 (ip), vehicle: other): 94 % of control
T/C (dose: 3.2 mg/kg/injection, schedule: Q01DX009 (ip), vehicle: other): 100 % of control
T/C (dose: 6.25 mg/kg/injection, schedule: Q01DX009 (ip), vehicle: other): 110 % of control
T/C (dose: 6.4 mg/kg/injection, schedule: Q01DX009 (ip), vehicle: other): 102 % of control
T/C (dose: 12.5 mg/kg/injection, schedule: Q01DX009 (ip), vehicle: other): 108 % of control
T/C (dose: 25.0 mg/kg/injection, schedule: Q01DX009 (ip), vehicle: other): 104 % of control
T/C (dose: 50.0 mg/kg/injection, schedule: Q01DX009 (ip), vehicle: other): 103 % of control
T/C (dose: 100.0 mg/kg/injection, schedule: Q01DX009 (ip), vehicle: other): 111 % of control
T/C (dose: 200.0 mg/kg/injection, schedule: Q01DX009 (ip), vehicle: other): 102 % of control
T/C (dose: 400.0 mg/kg/injection, schedule: Q01DX009 (ip), vehicle: other): 105 % of control

CCOC(=O)C1CCCCC1NC1CCCCC1C(=O)OCC (stereo not drawn)
T/C (dose: 34.5 mg/kg/injection, schedule: Q01DX009 (ip), vehicle: saline with Tween-80): 105 % of control
T/C [1]: 120 % of control
T/C (dose: 50.0 mg/kg/injection, schedule: Q01DX009 (ip), vehicle: saline): 103 % of control
T/C [2]: 117 % of control
T/C (dose: 100.0 mg/kg/injection, schedule: Q01DX009 (ip), vehicle: saline): 112 % of control
T/C (dose: 138.0 mg/kg/injection, schedule: Q01DX009 (ip), vehicle: saline with Tween-80): 107 % of control
T/C [3]: 120 % of control
T/C (dose: 200.0 mg/kg/injection, schedule: Q01DX009 (ip), vehicle: saline): 108 % of control

O=C1C=CC(=Nc2ccc3c(c2)C(=O)c2ccccc2-3)O1
T/C [4]: 111 % of control
T/C [5]: 115 % of control

Oc1ccc(CCC2CCC(c3ccc(O)cc3)CO2)cc1 (stereo not drawn)
T/C (dose: 12.5 mg/kg/injection, schedule: Q01DX005 (ip), vehicle: Klucel (hydroxypropylcellulose) (HPC)): 97 % of control
T/C (dose: 25.0 mg/kg/injection, schedule: Q01DX005 (ip), vehicle: Klucel (hydroxypropylcellulose) (HPC)): 103 % of control
T/C (dose: 50.0 mg/kg/injection, schedule: Q01DX005 (ip), vehicle: Klucel (hydroxypropylcellulose) (HPC)): 86 % of control
T/C (dose: 100.0 mg/kg/injection, schedule: Q01DX005 (ip), vehicle: Klucel (hydroxypropylcellulose) (HPC)): 89 % of control
T/C (dose: 200.0 mg/kg/injection, schedule: Q01DX005 (ip), vehicle: Klucel (hydroxypropylcellulose) (HPC)): 89 % of control

COc1ccc(C2CC(c3ccccc3)=Nc3ccccc3S2)cc1OC (stereo not drawn)
T/C [6]: 102 % of control
T/C [7]: 90 % of control
T/C [8]: 96 % of control

CN(C)C(CC(N)=O)C(=O)O (stereo not drawn)
T/C (dose: 50.0 mg/kg/injection, schedule: Q01DX009 (ip), vehicle: water): 101 % of control
T/C (dose: 100.0 mg/kg/injection, schedule: Q01DX009 (ip), vehicle: water): 102 % of control
T/C (dose: 200.0 mg/kg/injection, schedule: Q01DX009 (ip), vehicle: water): 97 % of control

O=C(NCN1CCOCC1)Nc1ccccc1
T/C [4]: 115 % of control
T/C [5]: 115 % of control
T/C (dose: 200.0 mg/kg/injection, schedule: Q01DX005 (ip), vehicle: saline with Tween-80): 112 % of control

CC(=O)c1c(C)[nH]c2c1[nH]c1ccccc12
T/C (dose: 60.0 mg/kg/injection, schedule: Q01DX005 (ip), vehicle: Klucel (hydroxypropylcellulose) (HPC)): 93 % of control
T/C (dose: 120.0 mg/kg/injection, schedule: Q01DX005 (ip), vehicle: Klucel (hydroxypropylcellulose) (HPC)): 101 % of control

CC[N+](CC)(CC)CCOc1nc(OCC[N+](CC)(CC)CC)nc(OCC[N+](CC)(CC)CC)n1
T/C (dose: 6.25 mg/kg/injection, schedule: Q01DX009 (ip), vehicle: saline): 100 % of control
T/C (dose: 12.5 mg/kg/injection, schedule: Q01DX009 (ip), vehicle: saline): 100 % of control
T/C (dose: 25.0 mg/kg/injection, schedule: Q01DX009 (ip), vehicle: saline): 100 % of control

ClC1=C(Cl)C(=C2CCCC2)C(Cl)=C1Cl
T/C [6]: 100 % of control
T/C [7]: 100 % of control
T/C [8]: 87 % of control

CC([NH-])CC(C)[NH-].O=[N+]([O-])O.O=[N+]([O-])O.[Pt+2] (stereo not drawn)
T/C (dose: 25.0 mg/kg/injection, schedule: Q04DX002 (ip), vehicle: saline): 159 % of control

CCCc1n(O)c(C)c(C)[n+]1[O-]
T/C [1]: 91 % of control
T/C [2]: 100 % of control
T/C [3]: 104 % of control

O=CC(NC(=O)N(CCCl)N=O)C(O)C(O)C(O)CO (stereo not drawn)
T/C (dose: 0.78 mg/kg/injection, schedule: Q01DX009 (ip), vehicle: saline): 156 % of control
T/C (dose: 1.5 mg/kg/injection, schedule: Q01DX005 (ip), vehicle: water): 158 % of control
T/C (dose: 1.5 mg/kg/injection, schedule: Q04DX003 (ip), vehicle: saline): 153 % of control
T/C (dose: 1.56 mg/kg/injection, schedule: Q01DX009 (ip), vehicle: saline): 195 % of control
T/C (dose: 3.0 mg/kg/injection, schedule: Q01DX005 (ip), vehicle: saline): 169 % of control
T/C (dose: 3.0 mg/kg/injection, schedule: Q01DX005 (ip), vehicle: water): 163 % of control and 187 % of control
T/C (dose: 3.0 mg/kg/injection, schedule: Q04DX003 (ip), vehicle: saline): 174 % of control
T/C (dose: 3.12 mg/kg/injection, schedule: Q01DX009 (ip), vehicle: saline): 263 % of control
T/C (dose: 4.32 mg/kg/injection, schedule: Q04DX002 (ip), vehicle: saline): 166 % of control
T/C (dose: 6.0 mg/kg/injection, schedule: Q01DX001 (ip), vehicle: saline): 157 % of control
T/C (dose: 6.0 mg/kg/injection, schedule: Q01DX001 (iv), vehicle: saline): 109 % of control
T/C (dose: 6.0 mg/kg/injection, schedule: Q01DX005 (ip), vehicle: saline): 205 % of control
T/C (dose: 6.0 mg/kg/injection, schedule: Q01DX005 (ip), vehicle: water): 199 % of control and 264 % of control
T/C (dose: 6.0 mg/kg/injection, schedule: Q01DX005 (iv), vehicle: saline): 192 % of control
T/C (dose: 6.0 mg/kg/injection, schedule: Q04DX003 (ip), vehicle: saline): 205 % of control
T/C (dose: 7.2 mg/kg/injection, schedule: Q04DX002 (ip), vehicle: saline): 169 % of control
T/C (dose: 12.0 mg/kg/injection, schedule: Q01DX001 (ip), vehicle: saline): 212 % of control
T/C (dose: 12.0 mg/kg/injection, schedule: Q01DX005 (ip), vehicle: saline): 258 % of control
T/C (dose: 12.0 mg/kg/injection, schedule: Q01DX005 (ip), vehicle: water): 265 % of control and 91 % of control
T/C (dose: 12.0 mg/kg/injection, schedule: Q01DX005 (iv), vehicle: saline): 119 % of control
T/C (dose: 12.0 mg/kg/injection, schedule: Q04DX002 (ip), vehicle: saline): 212 % of control
T/C (dose: 12.0 mg/kg/injection, schedule: Q04DX003 (ip), vehicle: saline): 285 % of control and 371 % of control and 401 % of control
T/C (dose: 18.0 mg/kg/injection, schedule: Q04DX003 (ip), vehicle: saline): 153 % of control and 175 % of control
T/C (dose: 20.0 mg/kg/injection, schedule: Q04DX002 (ip), vehicle: saline): 287 % of control
T/C (dose: 24.0 mg/kg/injection, schedule: Q01DX001 (ip), vehicle: saline): 277 % of control
T/C (dose: 24.0 mg/kg/injection, schedule: Q01DX001 (iv), vehicle: saline): 166 % of control
T/C (dose: 27.0 mg/kg/injection, schedule: Q04DX003 (ip), vehicle: saline): 96 % of control
T/C (dose: 40.0 mg/kg/injection, schedule: Q04DX003 (ip), vehicle: saline): 74 % of control and 98 % of control
